Results taken from US10287267B2, “Isoquinolin-3-yl carboxamides and preparation and use thereof” (Samumed, LLC, priority 2016, dated 2019).

Tests used:
recombinant GSK3β kinase = recombinant GSK3β kinase (Homo sapiens (Human), UniProt P49841); assay: GSK3β kinase assay (Ser/Thr 09 peptide Z-lyte FRET); assay type: biochemical; details: 46 μM ATP, 1 h room temperature;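 note: kinase activity read as coumarin to fluorescein emission ratio, 11-point threefold dilutions from 10 µM to 0.0003 µM in duplicate, unphosphorylated and phosphorylated peptide as 0% and 100% controls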
recombinant GSK3β kinase, sequence (P49841 whole entry): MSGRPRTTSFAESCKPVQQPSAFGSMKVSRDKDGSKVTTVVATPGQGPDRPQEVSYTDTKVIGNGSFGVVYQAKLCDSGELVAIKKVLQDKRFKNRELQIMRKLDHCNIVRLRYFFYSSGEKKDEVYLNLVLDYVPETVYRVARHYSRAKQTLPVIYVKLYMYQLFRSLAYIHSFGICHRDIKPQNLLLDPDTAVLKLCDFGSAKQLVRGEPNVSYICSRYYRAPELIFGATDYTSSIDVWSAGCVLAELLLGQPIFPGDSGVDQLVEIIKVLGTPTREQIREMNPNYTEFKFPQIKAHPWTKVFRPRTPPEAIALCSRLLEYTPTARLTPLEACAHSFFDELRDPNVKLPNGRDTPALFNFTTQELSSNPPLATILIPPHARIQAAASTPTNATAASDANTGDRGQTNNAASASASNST

IL-6 = IL-6 inhibition in LPS-stimulated human peripheral blood mononuclear cells (HTRF); assay type: cell-based; details: Homo sapiens, PBMC; for EC50: Table 9, huPBMCs, LPS 50 ng/mL, 22 hours, dose-response starting from 10 μM; for inhibition at 10 µM: read-out: percent value in parentheses beside EC50 >10 μM;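 for all read-outs here: IL-6 detected by HTRF with an XL665- and Cryptate-labelled anti-IL-6 antibody pair, samples run in duplicate, EC50 obtained from a four-parameter Levenberg-Marquardt curve fit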
Method: After 22 hour incubation, a mixture of anti-IL6 XL665 and anti-IL-6 Cryptate diluted in reconstitution buffer (Catalog #62IL6PEC, Cisbio Inc., Bedford, Mass.) was added to each well. […] All samples were processed in duplicate. […] EC50 was determined using software generated by Dotmatics Limited (Windhill Bishops Stortford Herts, UK) using the Levenberg-Marquardt 4 parameter fitting procedure with finite different gradients.

[1] = test system: SW480 colon carcinoma cells; assay: Cell viability assay (CellTiter-Glo); assay type: cell-based, human; details: Homo sapiens; for EC50: 96 h, SW480 cells, CellTiter-Glo, four days incubation; for inhibition at 10 µM: SW480, read-out: percent inhibition at 10 μM
[2] = test system: α-smooth muscle actin (αSMA) positive LL29 cells; assay: Inhibition of fibrotic process: αSMA in TGF-β1 treated primary human fibroblasts from IPF patients; assay type: cell-based; details: Homo sapiens, Fibroblast; for EC50: 96 h, Table 8, LL29 fibroblasts from IPF patients, TGF-β1 20 ng/mL, 4 days, dose-response 10 μM to 0.94 nM; for inhibition at 10 µM: read-out: percent value in parentheses beside EC50 >10 μM;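 for all read-outs here: controls were TGF-β1 stimulated wells with DMSO vehicle (positive) and cells given DMSO alone (negative), cultured in F12 medium with 1% fetal bovine serum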
[3] = target: recombinant DYRK1A kinase (Homo sapiens (Human), UniProt Q13627); assay: DYRK1A kinase assay (Ser/Thr 18 peptide Z-lyte FRET); assay type: biochemical; details: 30 μM ATP, 1 h room temperature;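 note: Read-out is the coumarin to fluorescein emission ratio, referenced to unphosphorylated (0%) and phosphorylated (100%) Ser/Thr 18 peptide controls, values from dose-response curves by non-linear regression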
[4] = test system: Wnt pathway (Sp5-Luc reporter, TCF/LEF binding sites) in SW480 colon carcinoma cells; assay: Screening assay for Wnt activity: Sp5-Luc reporter gene assay; assay type: cell-based, human; details: Homo sapiens; for EC50: Sp5-Luc reporter, SW480 cells, 36 to 48 hours; for inhibition at 10 µM: SW480, read-out: percent inhibition at 10 μM;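 for all read-outs here: firefly luciferase luminescence read in stably transduced SW480 cells carrying the Sp5 promoter reporter with eight TCF/LEF sites, compounds given in 0.1% DMSO final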
Method: The screening assay for Wnt activity is described as follows.
Following incubation, 15 μl of BriteLite Plus luminescence reagent (Perkin Elmer) was added to each well of the 384-well assay plates. The plates were placed on an orbital shaker for 2 min and then luminescence was quantified using the Envision (Perkin Elmer) plate reader.

[5] = test system: Tau phosphorylation at Ser396 (pSer396); assay: Tau phosphorylation assay (pSer396 ELISA / western blot) in SH-SY5Y cells; assay type: cell-based, human; details: Homo sapiens; SH-SY5Y cells, overnight (16-18 h) exposure; read-out: pSer396 Tau EC50;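 note: EC50 for reduction of Tau pSer396 in lysed cells, measured by colorimetric ELISA or chemiluminescent western blot, both using the same pSer396 antibody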

## CCN1CCC(C(=O)Nc2cc3cc(-c4cnn(C)c4)c(F)cc3cn2)CC1 [Compound 967, 1-Ethyl-N-(7-fluoro-6-(1-methyl-1H-pyrazol-4-yl)isoquinolin-3-yl) piperidine-4-carboxamide]
Recombinant GSK3β kinase
  EC50: 46 nM
IL-6
  EC50: 1.13 µM
[1]
  EC50: 459 nM
[2]
  EC50: 79 nM
[3]
  EC50: 1.9 nM
[4]
  EC50: 4420 nM
[5]
  EC50: 373 nM

## Cn1cc(-c2ccc3cnc(NC(=O)CN4CCCC4)cc3c2)cn1 [Compound 284, N-(6-(1-Methyl-1H-pyrazol-4-yl)isoquinolin-3-yl)-2-(pyrrolidin-1-yl) acetamide]
Recombinant GSK3β kinase
  EC50: 37 nM
IL-6
  EC50: 1.18 µM
[1]
  EC50: 2670 nM
[2]
  EC50: 2340 nM
[3]
  EC50: 7.1 nM
[4]
  EC50: 1870 nM
[5]
  EC50: 359 nM

## COCCN1CCC(C(=O)Nc2cc3cc(-c4cnn(C)c4)ccc3cn2)CC1 [Compound 89, 1-(2-Methoxyethyl)-N-(6-(1-methyl-1H-pyrazol-4-yl)isoquinolin-3-yl) piperidine-4-carboxamide]
Recombinant GSK3β kinase
  EC50: 64 nM
IL-6
  EC50: 1.14 µM
[1]
  EC50: 738 nM
[2]
  EC50: 137 nM
[3]
  EC50: 2.7 nM
[4]
  EC50: 765 nM
[5]
  EC50: 364 nM

## Cn1cc(-c2ccc3cnc(NC(=O)CN4CC5CC5C4)cc3c2)cn1 (stereo not drawn) [Compound 291, 2-(3-Azabicyclo[3.1.0]hexan-3-yl)-N-(6-(1-methyl-1H-pyrazol-4-yl)isoquinolin-3-yl)acetamide]
Recombinant GSK3β kinase
  EC50: 43 nM
IL-6
  EC50: 9.83 µM
[1]
  EC50: > 10000 nM
  inhibition at 10 µM: 24.4%
[2]
  EC50: > 10000 nM
  inhibition at 10 µM: 49.6%
[3]
  EC50: 8.2 nM
[4]
  EC50: 4640 nM
[5]
  EC50: 716 nM

## CN1CCn2ncc(-c3ccc4cnc(NC(=O)C5CC(F)(F)C5)cc4c3)c2C1 [Compound 267, 3,3-Difluoro-N-(6-(5-methyl-4,5,6,7-tetrahydropyrazolo[1,5-a]pyrazin-3-yl)isoquinolin-3-yl)cyclobutanecarboxamide]
Recombinant GSK3β kinase
  EC50: 39 nM
IL-6
  EC50: 9.41 µM
[1]
  EC50: 2020 nM
[2]
  EC50: 590 nM
[3]
  EC50: 29.4 nM
[4]
  EC50: 1380 nM
[5]
  EC50: 555 nM

## O=C(Nc1cc2cc(-c3cnco3)ccc2cn1)[C@@H]1CCCNC1 [Compound 975, (R)—N-(6-(Oxazol-5-yl)isoquinolin-3-yl)piperidine-3-carboxamide]
Recombinant GSK3β kinase
  EC50: 1090 nM
IL-6
  EC50: 0.425 µM
[1]
  EC50: 334 nM
[2]
  EC50: 138 nM
[3]
  EC50: 12 nM
[4]
  EC50: 423 nM
[5]
  EC50: 4600 nM

## CC1CCN(CC(=O)Nc2cc3cc(-c4cnn(C)c4CN4CCCCC4)ccc3cn2)CC1 [Compound 851, N-(6-(1-Methyl-5-(piperidin-1-ylmethyl)-1H-pyrazol-4-yl)isoquinolin-3-yl)-2-(4-methylpiperidin-1-yl)acetamide]
Recombinant GSK3β kinase
  EC50: 5000 nM
IL-6
  inhibition at 10 µM: 2.9%
  EC50: > 10 µM
[1]
  EC50: > 10000 nM
  inhibition at 10 µM: 30.4%
[2]
  EC50: 692 nM
[3]
  EC50: 5010 nM
[4]
  inhibition at 10 µM: 6.4%
  EC50: > 10000 nM
[5]
  EC50: 350 nM

## Cn1cc(-c2ccc3cnc(NC(=O)CN4CC[C@@H](F)C4)cc3c2)cn1 [Compound 274, 2-[(3R)-3-fluoropyrrolidin-1-yl]-N-[6-(1-methylpyrazol-4-yl)-3-isoquinolyl]acetamide]
Recombinant GSK3β kinase
  EC50: 25 nM
IL-6
  EC50: 3.22 µM
[1]
  EC50: 4050 nM
[2]
  EC50: 195 nM
[3]
  EC50: 5.9 nM
[4]
  EC50: 3720 nM
[5]
  EC50: 535 nM

## Cn1cc(-c2ccc3cnc(NC(=O)C4CCN(CCO)CC4)cc3c2)cn1 [Compound 358, 1-(2-Hydroxyethyl)-N-(6-(1-methyl-1H-pyrazol-4-yl)isoquinolin-3-yl) piperidine-4-carboxamide]
Recombinant GSK3β kinase
  EC50: 80 nM
IL-6
  EC50: 0.613 µM
[1]
  EC50: 2370 nM
[2]
  EC50: 145 nM
[3]
  EC50: 0.6 nM
[4]
  EC50: 413 nM
[5]
  EC50: 353 nM

## Cc1ncc(-c2ccc3cnc(NC(=O)CN4C[C@H]5C[C@@H]4CO5)cc3c2)s1 [Compound 996, 2-((1R,4R)-2-Oxa-5-azabicyclo[2.2.1]heptan-5-yl)-N-(6-(2-methylthiazol-5-yl)isoquinolin-3-yl)acetamide]
Recombinant GSK3β kinase
  EC50: 141 nM
IL-6
  inhibition at 10 µM: 10.6%
  EC50: > 10 µM
[1]
  EC50: > 10000 nM
  inhibition at 10 µM: 32.2%
[2]
  EC50: 1200 nM
[3]
  EC50: 13.4 nM
[4]
  EC50: 4390 nM
[5]
  EC50: 3100 nM

## Cc1nnc(-c2ccc3cnc(NC(=O)C4CCN(C(=O)c5ccccc5)CC4)cc3c2)s1 [Compound 921, 1-Benzoyl-N-(6-(5-methyl-1,3,4-thiadiazol-2-yl)isoquinolin-3-yl)piperidine-4-carboxamide]
Recombinant GSK3β kinase
  EC50: 5 nM
IL-6
  inhibition at 10 µM: 9.9%
  EC50: > 10 µM
[1]
  EC50: 1620 nM
[2]
  EC50: 75 nM
[3]
  EC50: 2.1 nM
[4]
  EC50: 779 nM
[5]
  EC50: 109 nM

## CN1CCC(C(=O)Nc2cc3cc(-c4cncs4)ccc3cn2)CC1 [Compound 718, 1-Methyl-N-(6-(thiazol-5-yl)isoquinolin-3-yl)piperidine-4-carboxamide]
Recombinant GSK3β kinase
  EC50: 79 nM
IL-6
  EC50: 0.406 µM
[1]
  EC50: 483 nM
[2]
  EC50: 168 nM
[3]
  EC50: 1.3 nM
[4]
  EC50: 589 nM
[5]
  EC50: 294 nM

## Cn1ncc(-c2ccc3cnc(NC(=O)C4CCN(C5COC5)CC4)cc3c2)c1CN1CCCCC1 [Compound 826, N-(6-(1-Methyl-5-(piperidin-1-ylmethyl)-1H-pyrazol-4-yl)isoquinolin-3-yl)-1-(oxetan-3-yl)piperidine-4-carboxamide]
Recombinant GSK3β kinase
  EC50: 7 nM
IL-6
  EC50: 3.29 µM
[1]
  EC50: 897 nM
[2]
  EC50: 149 nM
[3]
  EC50: 3.9 nM
[4]
  EC50: 603 nM
[5]
  EC50: 568 nM

## [2H]C([2H])([2H])n1cc(-c2cc3cc(NC(=O)CN4CCCCC4)ncc3cc2F)cn1 [Compound 1015, N-(7-Fluoro-6-(1-(methyl-d3)-1H-pyrazol-4-yl)isoquinolin-3-yl)-2-(piperidin-1-yl)acetamide]
Recombinant GSK3β kinase
  EC50: 101 nM
IL-6
  EC50: 3.12 µM
[1]
  EC50: 6420 nM
[2]
  EC50: > 10000 nM
  inhibition at 10 µM: 9.7%
[3]
  EC50: 5.8 nM
[4]
  EC50: 3730 nM
[5]
  EC50: 523 nM

## C[C@H](C(=O)Nc1cc2cc(-c3cnn(C)c3)ccc2cn1)N1CCCC1 [Compound 318, (R)—N-(6-(1-Methyl-1H-pyrazol-4-yl)isoquinolin-3-yl)-2-(pyrrolidin-1-yl) propanamide]
Recombinant GSK3β kinase
  EC50: 12 nM
IL-6
  EC50: 1.03 µM
[1]
  EC50: 940 nM
[2]
  EC50: 73 nM
[3]
  EC50: 58.8 nM
[4]
  EC50: 442 nM
[5]
  EC50: 72 nM

## Cn1ncc(-c2ccc3cnc(NC(=O)C4CCC(F)(F)CC4)cc3c2)c1CN1CCC1 [Compound 298, N-(6-(5-(Azetidin-1-ylmethyl)-1-methyl-1H-pyrazol-4-yl)isoquinolin-3-yl)-4,4-difluorocyclohexane-1-carboxamide]
Recombinant GSK3β kinase
  EC50: 125 nM
IL-6
  EC50: 5.53 µM
[1]
  EC50: 2380 nM
[2]
  EC50: 1340 nM
[3]
  EC50: 13.5 nM
[4]
  EC50: 3230 nM
[5]
  EC50: 1390 nM

## O=C(Nc1cc2cc(-c3cnc4n3CCNC4)ccc2cn1)[C@H]1CCCN1 [Compound 987, (R)—N-(6-(5,6,7,8-Tetrahydroimidazo[1,2-a]pyrazin-3-yl)isoquinolin-3-yl) pyrrolidine-2-carboxamide]
Recombinant GSK3β kinase
  EC50: 2320 nM
IL-6
  inhibition at 10 µM: 6.5%
  EC50: > 10 µM
[1]
  EC50: > 10000 nM
  inhibition at 10 µM: 10.6%
[2]
  EC50: > 10000 nM
  inhibition at 10 µM: 42%
[3]
  EC50: 42.8 nM
[4]
  inhibition at 10 µM: 10.7%
  EC50: > 10000 nM
[5]
  EC50: > 10000 nM

## O=C(Nc1cc2cc(-c3cnco3)ccc2cn1)C1CC1 [Compound 973, N-(6-(Oxazol-5-yl)isoquinolin-3-yl)cyclopropanecarboxamide]
Recombinant GSK3β kinase
  EC50: 20 nM
IL-6
  EC50: 0.395 µM
[1]
  EC50: 391 nM
[2]
  EC50: 134 nM
[3]
  EC50: 2.9 nM
[4]
  EC50: 609 nM
[5]
  EC50: 102 nM

## Cc1nnc(-c2ccc3cnc(NC(=O)C4(F)CCN(CC(C)C)CC4)cc3c2)o1 [Compound 309, 4-Fluoro-1-isobutyl-N-(6-(5-methyl-1,3,4-oxadiazol-2-yl)isoquinolin-3-yl) piperidine-4-carboxamide]
Recombinant GSK3β kinase
  EC50: 120 nM
IL-6
  inhibition at 10 µM: 4.5%
  EC50: > 10 µM
[1]
  EC50: > 10000 nM
  inhibition at 10 µM: 9.6%
[2]
  EC50: 14 nM
[3]
  EC50: 34.3 nM
[4]
  inhibition at 10 µM: 43.5%
  EC50: > 10000 nM
[5]
  EC50: 1220 nM

## Cc1nnc(-c2ccc3cnc(NC(=O)CN4CCCCC4)cc3c2)s1 [Compound 939, N-(6-(5-Methyl-1,3,4-thiadiazol-2-yl)isoquinolin-3-yl)-2-(piperidin-1-yl) acetamide]
Recombinant GSK3β kinase
  EC50: 13 nM
IL-6
  inhibition at 10 µM: 3.6%
  EC50: > 10 µM
[1]
  EC50: > 10000 nM
  inhibition at 10 µM: 31.6%
[2]
  EC50: 1140 nM
[3]
  EC50: 13.9 nM
[4]
  EC50: 2070 nM
[5]
  EC50: 274 nM

## Cn1cc(-c2ccc3cnc(NC(=O)CN4CCCC4)cc3c2)nn1 [Compound 487, N-(6-(1-Methyl-1H-1,2,3-triazol-4-yl)isoquinolin-3-yl)-2-(pyrrolidin-1-yl) acetamide]
Recombinant GSK3β kinase
  EC50: 7 nM
IL-6
  EC50: 3.3 µM
[1]
  EC50: 2680 nM
[2]
  EC50: 367 nM
[3]
  EC50: 7.7 nM
[4]
  EC50: 446 nM
[5]
  EC50: 161 nM
